Experimental data published in US10750743B2, “Pyridazinone herbicides” (E.I. DU PONT DE NEMOURS AND COMPANY, priority 2015, dated 2020).

What was measured:
Type in all cases: in vivo
[1] = test system: ragweed (common ragweed, Ambrosia elatior); assay: Test A preemergence, directed soil spray, visual injury rating; details: 0 is no effect, 100 is complete control
Method in brief: (§1)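 Seeds sown in a loam soil–sand blend received a directed preemergence soil spray of test chemical in a non-phytotoxic solvent mixture with surfactant. Postemergence plants were sprayed at 2 to 10 cm, one- to two-leaf stage. After approximately 10 d in greenhouse, injury was visually rated 0 (no effect) to 100 (complete control) against untreated controls.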

kochia (Kochia scoparia) [2] = assay: as above; details: 0 is no effect, 100 is complete control
Method in brief: as §1

[3] = test system: foxtail, giant (giant foxtail, Setaria faberii); assay: as above; details: 0 is no effect, 100 is complete control
Method in brief: as §1

[4] = test system: pigweed (Amaranthus retroflexus); assay: as above; details: 0 is no effect, 100 is complete control
Method in brief: as §1

[5] = test system: ryegrass, It. (Italian ryegrass, Lolium multiflorum); assay: as above; details: 0 is no effect, 100 is complete control
Method in brief: as §1

[6] = test system: barnyardgrass (Echinochloa crus-galli); assay: as above; details: 0 is no effect, 100 is complete control
Method in brief: as §1

[7] = test system: ragweed (common ragweed, Ambrosia elatior); assay: Test A postemergence application, visual injury rating; details: 0 to 100 scale, 0 no effect, 100 complete control
Method in brief: as §1

[8] = test system: blackgrass (Alopecurus myosuroides); assay: as above; details: 0 to 100 scale, 0 no effect, 100 complete control
Method in brief: as §1

kochia (Kochia scoparia) [9] = assay: as above; details: 0 to 100 scale, 0 no effect, 100 complete control
Method in brief: as §1

[10] = test system: wheat (Triticum aestivum); assay: as above; details: 0 to 100 scale, 0 no effect, 100 complete control
Method in brief: as §1

[11] = test system: foxtail, giant (giant foxtail, Setaria faberii); assay: as above; details: 0 to 100 scale, 0 no effect, 100 complete control
Method in brief: as §1

[12] = test system: pigweed (Amaranthus retroflexus); assay: as above; details: 0 to 100 scale, 0 no effect, 100 complete control
Method in brief: as §1

[13] = test system: ryegrass, It. (Italian ryegrass, Lolium multiflorum); assay: as above; details: 0 to 100 scale, 0 no effect, 100 complete control
Method in brief: as §1

corn (Zea mays) = assay: as above; details: 0 to 100 scale, 0 no effect, 100 complete control
Method in brief: as §1

[14] = test system: galium (catchweed bedstraw, Galium aparine); assay: as above; details: 0 to 100 scale, 0 no effect, 100 complete control
Method in brief: as §1

[15] = test system: barnyardgrass (Echinochloa crus-galli); assay: as above; details: 0 to 100 scale, 0 no effect, 100 complete control
Method in brief: as §1

rice (Oryza sativa) = assay: Test B flooded paddy test, visual rating; details: Flood, 250 g ai/ha, applied to paddy water, rated after 13 to 15 d
Method: (§2) Plant species in the flooded paddy test selected from rice (Oryza sativa), sedge, umbrella (small-flower umbrella sedge, Cyperus difformis), ducksalad (Heteranthera limosa), and barnyardgrass (Echinochloa crus-galli) were grown to the 2-leaf stage for testing. At time of treatment, test pots were flooded to 3 cm above the soil surface, treated by application of test compounds directly to the paddy water, and then maintained at that water depth for the duration of the test. Treated plants and controls were maintained in a greenhouse for 13 to 15 d, after which time all species were compared to controls and visually evaluated. Plant response ratings, summarized in Table B, are based on a scale of 0 to 100 where 0 is no effect and 100 is complete control. A dash (-) response means no test result.

[16] = test system: ducksalad (Heteranthera limosa); assay: Test B flooded paddy test, visual rating; details: Flood, 250 g ai/ha, applied to paddy water, rated after 13 to 15 d
Method: as §2

[17] = test system: sedge, umbrella (small-flower umbrella sedge, Cyperus difformis); assay: Test B flooded paddy test, visual rating; details: Flood, 250 g ai/ha, applied to paddy water, rated after 13 to 15 d
Method: as §2

[18] = test system: barnyardgrass (Echinochloa crus-galli); assay: Test B flooded paddy test, visual rating; details: Flood, 250 g ai/ha, applied to paddy water, rated after 13 to 15 d
Method: as §2

| Structure (SMILES) | Plant response rating (0 to 100 scale), Ragweed ([1]; 125 g ai/ha) | Plant response rating (0 to 100 scale), Ragweed ([1]; 500 g ai/ha) | Plant response rating (0 to 100 scale), Kochia (kochia (Kochia scoparia) [2]; 125 g ai/ha) | Plant response rating (0 to 100 scale), Kochia (kochia (Kochia scoparia) [2]; 500 g ai/ha) | Plant response rating (0 to 100 scale), Foxtail, Giant ([3]; 125 g ai/ha) | Plant response rating (0 to 100 scale), Foxtail, Giant ([3]; 500 g ai/ha) | Plant response rating (0 to 100 scale), Pigweed ([4]; 125 g ai/ha) | Plant response rating (0 to 100 scale), Pigweed ([4]; 500 g ai/ha) | Plant response rating (0 to 100 scale), Ryegrass, It. ([5]; 125 g ai/ha) | Plant response rating (0 to 100 scale), Ryegrass, It. ([5]; 500 g ai/ha) | Plant response rating (0 to 100 scale), Barnyardgrass ([6]; 125 g ai/ha) | Plant response rating (0 to 100 scale), Barnyardgrass ([6]; 500 g ai/ha) | Ragweed plant response rating ([7]; 125 g ai/ha) | Ragweed plant response rating ([7]; 500 g ai/ha) | Blackgrass plant response rating ([8]; 125 g ai/ha) | Blackgrass plant response rating ([8]; 500 g ai/ha) | Kochia plant response rating (kochia (Kochia scoparia) [9]; 125 g ai/ha) | Kochia plant response rating (kochia (Kochia scoparia) [9]; 500 g ai/ha) | Wheat plant response rating ([10]; 125 g ai/ha) | Wheat plant response rating ([10]; 500 g ai/ha) | also measured |
| --- | --- | --- | --- | --- | --- | --- | --- | --- | --- | --- | --- | --- | --- | --- | --- | --- | --- | --- | --- | --- | --- |
| Cc1nn(C)c(=O)c(-c2c(C)sc3ncccc23)c1OC(=O)OC(C)C [Compound 15] | 0 | 0 | 0 | 0 | 0 | 0 | 0 | 0 | 0 | 0 | 0 | 0 | 0 | 0 | 0 | 0 | 0 | 0 | 0 | 0 | Foxtail, Giant plant response rating ([11]; 125 g ai/ha): 0; Foxtail, Giant plant response rating ([11]; 500 g ai/ha): 0; Pigweed plant response rating ([12]; 125 g ai/ha): 0; Pigweed plant response rating ([12]; 500 g ai/ha): 0; Ryegrass, It. plant response rating ([13]; 125 g ai/ha): 0; Ryegrass, It. plant response rating ([13]; 500 g ai/ha): 0; Corn plant response rating (corn (Zea mays); 125 g ai/ha): 0; Corn plant response rating (corn (Zea mays); 500 g ai/ha): 0; Galium plant response rating ([14]; 125 g ai/ha): 0; Galium plant response rating ([14]; 500 g ai/ha): 0; Barnyardgrass plant response rating ([15]; 125 g ai/ha): 0; Barnyardgrass plant response rating ([15]; 500 g ai/ha): 0; Rice plant response rating (0 to 100 scale, 0 is no effect, 100 is complete control) (rice (Oryza sativa)): 0; Ducksalad plant response rating (0 to 100 scale, 0 is no effect, 100 is complete control) [16]: 0; Sedge, Umbrella plant response rating (0 to 100 scale, 0 is no effect, 100 is complete control) [17]: 0; Barnyardgrass plant response rating (0 to 100 scale, 0 is no effect, 100 is complete control) [18]: 0 |
| COc1ncc(-c2c(O)c(C)nn(C)c2=O)c2ccccc12 [Compound 16] | 30 | 70 | 40 | 100 | 0 | 0 | 30 | 100 | 80 | 90 | 0 | 0 | 30 | 70 | 0 | 20 | 70 | 100 | 0 | 0 | Foxtail, Giant plant response rating ([11]; 125 g ai/ha): 0; Foxtail, Giant plant response rating ([11]; 500 g ai/ha): 0; Pigweed plant response rating ([12]; 125 g ai/ha): 40; Pigweed plant response rating ([12]; 500 g ai/ha): 70; Ryegrass, It. plant response rating ([13]; 125 g ai/ha): 90; Ryegrass, It. plant response rating ([13]; 500 g ai/ha): 100; Corn plant response rating (corn (Zea mays); 125 g ai/ha): 0; Corn plant response rating (corn (Zea mays); 500 g ai/ha): 0; Galium plant response rating ([14]; 125 g ai/ha): 70; Galium plant response rating ([14]; 500 g ai/ha): 100; Barnyardgrass plant response rating ([15]; 125 g ai/ha): 0; Barnyardgrass plant response rating ([15]; 500 g ai/ha): 10; Rice plant response rating (0 to 100 scale, 0 is no effect, 100 is complete control) (rice (Oryza sativa)): 0; Ducksalad plant response rating (0 to 100 scale, 0 is no effect, 100 is complete control) [16]: 0; Sedge, Umbrella plant response rating (0 to 100 scale, 0 is no effect, 100 is complete control) [17]: 0; Barnyardgrass plant response rating (0 to 100 scale, 0 is no effect, 100 is complete control) [18]: 0 |
